Assay results as given in patent publication US11633379B2, “Methods of inhibiting PCSK9” (TRUSTEES OF DARTMOUTH COLLEGE, priority 2017, dated 2023).

How the values were obtained:
[1] = test system: 4000 most abundant proteins in HepG2 cells; assay: Shotgun proteomics of HepG2 cells; type: cell-based, human; details: 5 μM, FIGS. 8A-8B
Description: To study whether 34 affect total protein levels in hepG2 in an unbiased analysis we used 1×10^6 HepG2 cells in 6-well culture plates, followed by incubation with media+0.1% DMSO or DMSO or with increasing concentration (2.5-10 μM) of 34 in 0.1% DMSO for 24 hours. After 24 hours media was aspirated, cells were washed with HBSS followed by shotgun proteomics analysis of the most abundant ˜4000 cellular proteins. Spectral count for each protein was compared between untreated (0.1% DMSO) to treated (34 at 5 μM) samples.

PCSK9 [2] = assay: Intracellular PCSK9 protein in HepG2 cells (western blot); type: cell-based, human; details: FIG. 1A
Description: To study whether 34 affect intracellular PCSK9 levels we used 1×10^6 HepG2 cells in 6-well culture plates, followed by incubation with media+0.1% DMSO or increasing concentration (0.2-50 uM) of 34 in 0.1% DMSO for 24 hours. After 24 hours media was aspirated, cells were washed with HBSS followed by protein extraction using commercially available RIPA buffer (SIGMA-ALDRICH, catalog #20-188). Protein extracts (20 μg) were used for immunodetection of intracellular PCSK9 (western blot analysis) with a commercially available primary antibody against PCSK9 (MBL-international, catalog # CY-1037), HRP-conjugated secondary antibody (SIGMA-ALDRICH, catalog #12-348) visualized using an enhanced chemiluminescence (ECL) solution (Cumaric acid, Luminol and hydrogen peroxide), developed in a LiCore imager.

albumin [3] = assay: Albumin secretion, HepG2 (ELISA); type: cell-based, human
Description: The collected media was analyzed for albumin levels using commercially available ELISA kit (ABCAM, catalog #108788) following the manufacturer instruction.

PCSK9 [4] = assay: Basal_PCSK9 HepG2, primary SP and CRC (secreted PCSK9, ELISA); type: cell-based, human
Description: To study the effect of the compounds on PCSK9 secretion we used 1×10^6 HepG2 cells in 6-well culture plates, followed by incubation with media only, media+0.1% DMSO or Media+5 uM of 31/33/34/35 in 0.1% DMSO and collection of 50 ul of media at 8, 16, 24 and 40 hours or incubation with increasing concentration (0.2-50 μM) of 34 in 0.1% DMSO for 24 hours and collection of 50 ul of media. The collected media was analyzed for PCSK9 levels using commercially available ELISA kit (MBL-international, catalog # CY-8079) following the manufacturer instruction.
The below data (Table 2) was generated using the assays as discussed in Examples 1-2. Blanks mean no testing was performed. […] For the SP assays, the higher the number, the higher the inhibition, e.g., the better the activity of the compound. Compounds with a determined IC50 are particularly active, the IC50 values were determined via dose response curve (under the heading CRC which stands for concentration response curve aka dose response curve).

[5] = target: T1, PCSK9 binding to LDLR (EGF-A domain) (Homo sapiens, UniProt Q8NBP7); assay: PCSK9-LDLR interaction ELISA; details: FIG. 5B
T1 construct: purchased MBL-international CY-8150
Description: To study whether increasing concentrations of 34 (0.2-50 μM) directly interfere with PCSK9-LDLR interaction we used a commercially available ELISA kit (MBL-international, catalog # CY-8150) following the manufacturer instruction.

apoE [6] = assay: Intracellular apoE, HepG2 (western blot); type: cell-based, human; details: 40 hours of incubation, HepG2, FIG. 7C
Description: […] […] Protein extracts (25 μgr) were used for immunodetection of intracellular […] (western blot analysis) with a commercially available primary antibody against apoE (ABCAM, catalog #1906), HRP-conjugated secondary antibody (SIGMA-ALDRIC, catalog # A5420) visualized using an enhanced chemiluminescence (ECL) solution (Cumaric acid, Luminol and hydrogen peroxide), developed in a LiCore imager.

apoE [7] = assay: apoE secretion, HepG2 (ELISA); type: cell-based, human; details: HepG2, FIG. 7A
Description: The collected media was analyzed for apoE levels using commercially available ELISA kit (ABCAM, catalog #108813) following the manufacturer instruction.

albumin [8] = assay: Intracellular albumin, HepG2 (ELISA); type: cell-based, human
Description: After 24 hours media was aspirated, cells were washed with HBSS followed by protein extraction using commercially available RIPA buffer (SIGMA-ALDRICH, catalog #20-188). Protein extracts (5 μgr) were used for albumin detection using commercially available ELISA kit (ABCAM, catalog #108788) following the manufacturer instruction.

apoE mRNA = assay: apoE transcription, HepG2 (real-time PCR); type: cell-based, human; details: HepG2, FIG. 7B
Description: , cells were washed with HBSS followed by RNA extraction kit (RNeasy, QIAGEN cat #74-104). mRNA was reversed transcribed to cDNA using commercially available kit (ThermoFisher, cat #4368814) and analyzed using real-time PCR for apoE transcript levels using the relative expression method known as delta-delta CT.

HepG2 cells = assay: LDL-cholesterol uptake in HepG2 cells (3H-cholesterol); type: cell-based, human; details: 10 uM for 24 hours, FIG. 16
Description: To determine whether Compound 34 increases LDL-cholesterol uptake, LDL was isolated from human plasma using ultracentrifugation and the cholesterol content of the particle was radiolabeled with 3H-cholesterol. Hepatoma cells (HepG2) were cultured (0.25×10^6 cell/well in a 24-well plate) with or without 10 uM of B004 (compound 34) for 24 hours in DMEM. Radiolabeled LDL-cholesterol (LDL-c) was added to the cells for 4 hours. Cells were washed 3 times with PBS and left to air dry. 500 μl of isopropanol was added to each well and incubate with shaking at room temperature for 3 hours in a sealed container. 50 μl of the isopropanol was placed into a scintillation vial together with 4.5 ml of scintillation liquid cocktail (Scintiverse BD). 3H-cholesterol levels were read using a beta emission radioactive counter.

[9] = 20 μM and 50 μM, HepG2, result of increased cell death

T1 sequence (Q8NBP7 153-692): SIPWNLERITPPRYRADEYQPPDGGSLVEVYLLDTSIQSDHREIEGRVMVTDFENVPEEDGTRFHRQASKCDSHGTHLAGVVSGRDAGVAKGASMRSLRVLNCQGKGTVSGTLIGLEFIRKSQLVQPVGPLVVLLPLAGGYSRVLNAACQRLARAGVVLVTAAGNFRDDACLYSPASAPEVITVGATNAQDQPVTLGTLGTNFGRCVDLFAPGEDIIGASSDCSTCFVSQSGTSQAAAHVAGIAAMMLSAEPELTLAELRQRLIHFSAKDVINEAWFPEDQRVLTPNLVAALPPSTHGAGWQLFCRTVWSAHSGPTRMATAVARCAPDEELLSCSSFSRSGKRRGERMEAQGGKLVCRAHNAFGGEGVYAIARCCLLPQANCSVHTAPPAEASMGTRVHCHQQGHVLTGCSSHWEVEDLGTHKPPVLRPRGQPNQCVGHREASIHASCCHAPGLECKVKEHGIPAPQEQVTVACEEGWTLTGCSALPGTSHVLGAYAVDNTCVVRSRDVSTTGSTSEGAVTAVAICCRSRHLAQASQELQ
T1 sequence (Q8NBP7 31-152 partner limits assumed): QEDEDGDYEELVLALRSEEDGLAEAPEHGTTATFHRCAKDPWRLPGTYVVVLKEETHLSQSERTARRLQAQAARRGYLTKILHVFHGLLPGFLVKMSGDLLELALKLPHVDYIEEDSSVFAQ

Structure (SMILES): CC(=O)Oc1ccc(C2CC3(CCCCC3)c3c2[nH]c2ccccc32)cc1 (stereo not shown) [Compound 34]
- levels of the 4000 most abundant proteins [1]: does not affect the levels of the 4000 most abundant proteins in HepG2 cells
- intracellular PCSK9, pro-protein and mature forms (PCSK9 [2]): reduces levels of both the pro-protein and the mature forms of PCSK9 in a dose-dependent manner
- secreted albumin (albumin [3]; [9]): Reduction in secreted and intracellular albumin
- secreted albumin (albumin [3]; up to 10 μM, 40 hours of incubation, HepG2, FIG. 6A): no changes in secreted or intracellular albumin
- Primary SP Basal_PCSK9 HepG2 SP % Inhib @ 5 μM (PCSK9 [4]; 5 μM, HepG2, single point): 5.2%
- accumulation of PCSK9 in culture media (PCSK9 [4]; 5 μM, HepG2 cells, FIGS. 2A-2B): significantly reduced accumulation of PCSK9 in culture media in a time-dependent and concentration-dependent manner
- Primary SP Basal_PCSK9 HepG2 SP % Inhib @ 50 μM (PCSK9 [4]; 50 μM, HepG2, single point): 100.1%
- IC50 (PCSK9 [4]; HepG2, concentration response curve): 3.5 µM
- activity rating in words (PCSK9 inhibition, Table 2) (PCSK9 [4]; summary of Table 2 data): particularly strongly active
- PCSK9 binding to LDLR (EGF-A domain) [5]: does not affect PCSK9 binding to LDLR (EGF-A domain)
- intracellular apoE levels (apoE [6]): no changes in secreted, intracellular, or mRNA levels of apoE
- secreted apoE levels (apoE [7]): no changes in secreted, intracellular, or mRNA levels of apoE
- intracellular albumin (albumin [8]; [9]): Reduction in secreted and intracellular albumin
- intracellular albumin (albumin [8]; up to 10 μM, 40 hours of incubation, HepG2, FIG. 6B): no changes in secreted or intracellular albumin
- apoE mRNA levels (apoE mRNA): no changes in secreted, intracellular, or mRNA levels of apoE
- LDL-cholesterol uptake (HepG2 cells): increases LDL-cholesterol uptake in HepG2 cells
